# Source: patent US9856279B2 (AGIOS PHARMACEUTICALS, INC, priority 2011, dated 2018)
# Legend:
# IDH1 R132H = IDH1 R132H (Homo sapiens, UniProt O75874, R132H); test: Assay for IDH1 R132H inhibitors (NADPH/aKG, resazurin detection); format: biochemical; conditions: enzyme assay of Example 12; read-out: IDH1R132H IC50
# Method in brief: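 Compound added to substrate mix (8 uM NADPH, 2 mM aKG), then enzyme mix (0.2 μg/ml IDH1 R132H); 50 min RT in 20 mM Tris pH 7.5, 150 mM NaCl, 10 mM MgCl2, 0.03% BSA. Resazurin detection mix (30 μM) 5 min RT; resorufin fluorescence Ex544/Em590.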
# HT1080 cells = test: Cellular assay for IDH1m inhibitors: inhibition of 2-HG production (LC-MS, 48 hours) in HT1080 cells; format: cell-based; conditions: Homo sapiens, HT-1080; inhibition of 2-HG production, HT1080 cells; read-out: HT1080 IC50
# Experimental: Cells (e.g., HT1080 or U87MG) and are grown in T125 flasks in DMEM containing 10% FBS, 1× penicillin/streptomycin and 500 ug/mL G418. They are harvested by trypsin and seeded into 96 well white bottom plates at a density of 5000 cell/well in 100 ul/well in DMEM with 10% FBS. No cells are plates in columns 1 and 12. Cells are incubated overnight at 37° C. in 5% CO2. The next day compounds are made up at 2× concentration and 100 ul are added to each cell well. The final concentration of DMSO is 0.2% and the DMSO control wells are plated in row G. The plates are then placed in the incubator for 48 hours. At 48 hours, 100 μl of media is removed from each well and analyzed by LC-MS for 2-HG concentrations. The cell plate is placed back in the incubator for another 24 hours. At 72 hours post compound addition, 10 mL/plate of Promega Cell Titer Glo reagent is thawed and mixed. The cell plate is removed from the incubator and allowed to equilibrate to room temperature. Then 100 ul of reagent is added to each well of media. The cell plate is then placed on an orbital shaker for 10 minutes and then allowed to sit at room temperature for 20 minutes. The plate is then read for luminescence with an integration time of 500 ms.
# The IC50 for inhibition of 2-HG production (concentration of test compound to reduce 2HG production by 50% compared to control) in these two cell lines for various compounds of formula I is set forth in Table 4 above.
# Sequence of IDH1 R132H (O75874 whole entry R132H): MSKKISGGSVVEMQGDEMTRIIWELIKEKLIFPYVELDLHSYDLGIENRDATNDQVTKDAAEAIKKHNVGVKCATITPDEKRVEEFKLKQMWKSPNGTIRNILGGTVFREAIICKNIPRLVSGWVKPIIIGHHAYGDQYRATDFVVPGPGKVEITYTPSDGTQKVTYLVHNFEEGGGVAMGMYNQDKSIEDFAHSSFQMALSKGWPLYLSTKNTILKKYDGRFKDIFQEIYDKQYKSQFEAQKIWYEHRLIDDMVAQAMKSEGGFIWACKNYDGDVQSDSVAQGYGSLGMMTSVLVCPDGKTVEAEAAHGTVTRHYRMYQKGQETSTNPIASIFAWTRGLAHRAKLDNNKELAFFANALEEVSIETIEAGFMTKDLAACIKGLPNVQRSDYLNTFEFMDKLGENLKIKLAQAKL
Compound,IC50 (IDH1 R132H),IC50 (HT1080 cells)
"N#Cc1cc(-c2cccc3c[n+]([O-])ccc23)c(C2CC2)nc1N1CCN(C(=O)C2CC2)[C@H](C2CC2)C1 [Compound 439, (R)-5-(5-cyano-6-(4-(cyclopropanecarbonyl)-3-cyclopropylpiperazin-1-yl)-2-cyclopropylpyridin-3-yl)isoquinoline 2-oxide]",< 500 nM,< 500 nM
"COCCC(=O)N1CCN(c2nc(C3CC3)c(-c3ccc4nccnc4c3)cc2C#N)C[C@H]1C [Compound 445, (R)-6-cyclopropyl-2-(4-(3-methoxypropanoyl)-3-methylpiperazin-1-yl)-5-(quinoxalin-6-yl)nicotinonitrile]",< 500 nM,1000 to 10000 nM
"N#Cc1cc(-c2cccc3c(C#N)nccc23)c(C2CC2)nc1N1CCN(C(=O)C2CC2)[C@H](C2CC2)C1 [Compound 511, (R)-5-(5-cyano-6-(4-(cyclopropanecarbonyl)-3-cyclopropylpiperazin-1-yl)-2-cyclopropylpyridin-3-yl)isoquinoline-1-carbonitrile]",< 500 nM,500 to 1000 nM
"CCO[C@H]1C[C@@H]1C(=O)N1CCN(c2nc(C3CC3)c(-c3cccc4cnccc34)cc2C#N)C[C@H]1C1CC1 [Compound 514, 6-cyclopropyl-2-((R)-3-cyclopropyl-4 ((1S,2S)-2-ethoxycyclopropanecarbonyl)piperazin-1-yl)-5-(isoquinolin-5-yl)nicotinonitrile]",< 500 nM,< 500 nM
"C=Cc1cncc(-c2cc(C#N)c(N3CCN(C(=O)C4CC4)[C@H](C4CC4)C3)nc2C2CC2)n1 [Compound 515, (R)-2-(4-(cyclopropanecarbonyl)-3-cyclopropylpiperazin-1-yl)-6-cyclopropyl-5-(6-vinylpyrazin-2-yl)nicotinonitrile]",500 to 1000 nM,1000 to 10000 nM
"CC(=O)N1CCN(c2nc(C3CC3)c(-c3cccc4cnccc34)cc2C#N)C[C@H]1C [Compound 516, (R)-2-(4-acetyl-3-methylpiperazin-1-yl)-6-cyclopropyl-5-(isoquinolin-5-yl)nicotinonitrile]",< 500 nM,500 to 1000 nM
"CCO[C@@H]1C[C@@H]1C(=O)N1CCN(c2nc(C3CC3)c(-c3cccc4cnccc34)cc2C#N)C[C@H]1C [Compound 517, 6-cyclopropyl-2-((R)-4-((1S,2R)-2-ethoxycyclopropanecarbonyl)-3-methylpiperazin-1-yl)-5-(isoquinolin-5-yl)nicotinonitrile]",< 500 nM,500 to 1000 nM
"C=Cc1nccc(-c2cc(C#N)c(N3CCN(C(=O)C4CC4)[C@H](C4CC4)C3)nc2C2CC2)c1F [Compound 520, (R)-6-(4-(cyclopropanecarbonyl)-3-cyclopropylpiperazin-1-yl)-2-cyclopropyl-3′-fluoro-2′-vinyl-3,4′-bipyridine-5-carbonitrile]",500 to 1000 nM,< 500 nM
"C[C@@H]1CN(c2nc(C3CC3)c(-c3ccnc(C#N)c3)cc2C#N)CCN1C(=O)C1CC1 [Compound 522, (R)-6-(4-(cyclopropanecarbonyl)-3-methylpiperazin-1-yl)-2-cyclopropyl-3,4′-bipyridine-2′,5-dicarbonitrile]",500 to 1000 nM,1000 to 10000 nM
"CCS(=O)(=O)N1CCN(c2cc(C#N)c(N3CCN(C(=O)C4CC4)[C@H](C4CC4)C3)nc2C2CC2)CC1 [Compound 529, (R)-2-(4-(cyclopropanecarbonyl)-3-cyclopropylpiperazin-1-yl)-6-cyclopropyl-5-(4-(ethylsulfonyl)piperazin-1-yl)nicotinonitrile]",< 500 nM,500 to 1000 nM
"C=Cc1ncc(Cl)c(-c2cc(C#N)c(N3CCN(C(=O)C4CC4)[C@H](C4CC4)C3)nc2C2CC2)n1 [Compound 533, (R)-5-(5-chloro-2-vinylpyrimidin-4-yl)-2-(4-(cyclopropanecarbonyl)-3-cyclopropylpiperazin-1-yl)-6-cyclopropylnicotinonitrile]",500 to 1000 nM,1000 to 10000 nM
"N#Cc1ccc2c(-c3cc(C#N)c(N4CCN(C(=O)CC(F)(F)F)[C@H](C5CC5)C4)nc3C3CC3)cccc2n1 [Compound 535, (R)-5-(5-cyano-2-cyclopropyl-6-(3-cyclopropyl-4-(3,3,3-trifluoropropanoyl)piperazin-1-yl)pyridin-3-yl)quinoline-2-carbonitrile]",< 500 nM,< 500 nM
"Cn1cc(-c2cc(C#N)c(N3CCN(C(=O)CC(F)(F)F)[C@H](C4CC4)C3)nc2C2CC2)c2ccccc2c1=O [Compound 536, (R)-6-cyclopropyl-2-(3-cyclopropyl-4-(3,3,3-trifluoropropanoyl)piperazin-1-yl)-5-(2-methyl-1-oxo-1,2-dihydroisoquinolin-4-yl)nicotinonitrile]",< 500 nM,< 500 nM
"N#Cc1cc(-c2ccc3ncsc3c2)c(C2CC2)nc1N1CCN(C(=O)CC(F)(F)F)[C@H](C2CC2)C1 [Compound 537, (R)-5-(benzo[d]thiazol-6-yl)-6-cyclopropyl-2-(3-cyclopropyl-4-(3,3,3-trifluoropropanoyl)piperazin-1-yl)nicotinonitrile]",< 500 nM,500 to 1000 nM
"N#Cc1cc(-c2cnc3[nH]ccc3c2)c(C2CC2)nc1N1CCN(C(=O)CC(F)(F)F)[C@H](C2CC2)C1 [Compound 539, (R)-6-cyclopropyl-2-(3-cyclopropyl-4-(3,3,3-trifluoropropanoyl)piperazin-1-yl)-5-(1H-pyrrolo[2,3-b]pyridin-5-yl)nicotinonitrile]",< 500 nM,1000 to 10000 nM
"C=C(C)c1cc(-c2cc(C#N)c(N3CCN(C(=O)C4CC4)[C@H](C4CC4)C3)nc2C2CC2)ccn1 [Compound 544, (R)-6-(4-(cyclopropanecarbonyl)-3-cyclopropylpiperazin-1-yl)-2-cyclopropyl-2′-(prop-1-en-2-yl)-3,4′-bipyridine-5-carbonitrile]",< 500 nM,500 to 1000 nM
"C=Cc1cc(-c2cc(C#N)c(N3CCN(C(=O)CN4CCCC4=O)[C@H](C4CC4)C3)nc2C2CC2)ccn1 [Compound 814, (R)-2-cyclopropyl-6-(3-cyclopropyl-4-(2-(2-oxopyrrolidin-1-yl)acetyl)piperazin-1-yl)-2′-vinyl-3,4′-bipyridine-5-carbonitrile]",500 to 1000 nM,
"C=Cc1ccnc(Nc2cc(C#N)c(N3CCN(C(=O)CN4CCCC4=O)[C@H](C4CC4)C3)nc2C2CC2)c1 [Compound 816, (R)-6-cyclopropyl-2-(3-cyclopropyl-4-(2-(2-oxopyrrolidin-1-yl)acetyl)piperazin-1-yl)-5-((4-vinylpyridin-2-yl)amino)nicotinonitrile]",500 to 1000 nM,
"C=Cc1cc(-c2c(C3CC3)nc(N3CCN(C(=O)C=C4CCC4)[C@H](C4CC4)C3)c(C#N)c2C)ccn1 [Compound 820, (R)-6-(4-(2-cyclobutylideneacetyl)-3-cyclopropylpiperazin-1-yl)-2-cyclopropyl-4-methyl-2′-vinyl-3,4′-bipyridine-5-carbonitrile]",< 500 nM,
C=Cc1cc(-c2cc(C#N)c(N3CCN(C(=O)C[C@H]4CCC(=O)O4)[C@H](C4CC4)C3)nc2C2CC2)ccn1 [Compound 821],< 500 nM,
"N#Cc1cc(Nc2ccnc(CO)c2)c(C2CC2)nc1N1CCN(C(=O)C[C@H]2CCO2)[C@H](C2CC2)C1 [Compound 824, 6-cyclopropyl-2-((R)-3-cyclopropyl-4-(2-((R)-oxetan-2-yl)acetyl)piperazin-1-yl)-5-((2-(hydroxymethyl)pyridin-4-yl)amino)nicotinonitrile]",< 500 nM,
"C=Cc1cc(-c2c(C3CC3)nc(N3CCN(C(=O)CCC4CC4)[C@H](C4CC4)C3)c(C#N)c2C)ccn1 [Compound 825, (R)-2-cyclopropyl-6-(3-cyclopropyl-4-(3-cyclopropylpropanoyl)piperazin-1-yl)-4-methyl-2′-vinyl-3,4′-bipyridine-5-carbonitrile]",< 500 nM,
"C=Cc1cc(-c2c(C3CC3)nc(N3CCN(C(=O)CCC4CCC4)[C@H](C4CC4)C3)c(C#N)c2C)ccn1 [Compound 826, (R)-6-(4-(3-cyclobutylpropanoyl)-3-cyclopropylpiperazin-1-yl)-2-cyclopropyl-4-methyl-2′-vinyl-3,4′-bipyridine-5-carbonitrile]",< 500 nM,
"C=Cc1cc(-c2c(C3CC3)nc(N3CCN(C(=O)CCCCC)[C@H](C4CC4)C3)c(C#N)c2C)ccn1 [Compound 827, (R)-2-cyclopropyl-6-(3-cyclopropyl-4-hexanoylpiperazin-1-yl)-4-methyl-2′-vinyl-3,4′-bipyridine-5-carbonitrile]",< 500 nM,
C=Cc1ccnc(Nc2cc(C#N)c(N3CCN(C(=O)C[C@H]4CCCO4)[C@H](C4CC4)C3)nc2C2CC2)c1 [Compound 828],< 500 nM,
"C=Cc1ccnc(Nc2cc(C#N)c(N3CCN(C(=O)CCCCC)[C@H](C4CC4)C3)nc2C2CC2)c1 [Compound 830, (R)-6-cyclopropyl-2-(3-cyclopropyl-4-hexanoylpiperazin-1-yl)-5-(4-vinylpyridin-2-ylamino)nicotinonitrile]",< 500 nM,
